Reference: US20160045487A1, “COMPOSITIONS AND METHODS FOR TREATING NEUROPATHY” (CHILDEREN'S MEDICAL CENTER CORPORATION, priority 2013, published 2016)

Experiments:
[1] = system: GFAP-DN-erbB4 and wild type mice; assay: Mechanical sensitivity (von Frey filaments); format: in vivo, mouse; settings: after 4 weeks topical treatment, cream 1.5 mM
Protocol: As a first test, a cream containing XIB4035 (1.5 mM) was applied directly to the hind paws of GFAP-DN-erbB4 and wild type mice twice daily for a period of 4 weeks starting prior to symptom onset (P21). Mice of both genotypes were also treated with the base cream containing no drug for control. Mice were tested for responses to a noxious thermal stimulus prior to the initiation of treatment and every 7 days for the duration of the experiment.
Mechanical sensitivity was tested by simulation of the plantar surface of the hind paw with a series of von Frey filaments while the animal was placed on an elevated wire grid. The threshold was determined as the lowest force that evoked a visible withdrawal response. The use of animals was approved by the Animal Care and Use Committee of Children's Hospital Boston.

[2] = system: mutant and wild type mice; assay: Observation for side effects of chronic topical treatment; format: in vivo, mouse; settings: treated twice a day for 7 weeks
Description: Importantly, given the potential need for chronic application of XIB4035, the question of whether XIB4035 produces side effects in both mutant and wild type mice was examined.

GFRα3/RET = molecular target: T1, GFRα3/RET (UniProt O60609+P35546); assay: RET phosphorylation in N2A cells transfected with GFRα3; format: cell-based, human GFRα3 in murine N2A cells
T1 construct: N2A cells (which express RET) transfected with GFRα1 or GFRα3 expression constructs; expressed in transfected cells; host or cells: Neuro2A (N2A) cells; GFRα3 plasmid was a gift from Dr. Milbrandt; RET is endogenous
T1 sequence (O60609 32-374 limits assumed): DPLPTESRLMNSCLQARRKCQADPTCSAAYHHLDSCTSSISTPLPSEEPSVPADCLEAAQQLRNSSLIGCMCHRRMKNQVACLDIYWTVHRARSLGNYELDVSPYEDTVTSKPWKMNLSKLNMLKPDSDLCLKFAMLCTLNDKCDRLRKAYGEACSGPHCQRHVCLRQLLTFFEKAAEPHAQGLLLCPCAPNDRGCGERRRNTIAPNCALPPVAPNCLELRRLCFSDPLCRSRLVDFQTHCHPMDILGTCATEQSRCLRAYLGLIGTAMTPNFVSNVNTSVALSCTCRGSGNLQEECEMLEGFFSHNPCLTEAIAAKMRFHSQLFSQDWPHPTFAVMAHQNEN
T1 sequence (P35546 29-1115): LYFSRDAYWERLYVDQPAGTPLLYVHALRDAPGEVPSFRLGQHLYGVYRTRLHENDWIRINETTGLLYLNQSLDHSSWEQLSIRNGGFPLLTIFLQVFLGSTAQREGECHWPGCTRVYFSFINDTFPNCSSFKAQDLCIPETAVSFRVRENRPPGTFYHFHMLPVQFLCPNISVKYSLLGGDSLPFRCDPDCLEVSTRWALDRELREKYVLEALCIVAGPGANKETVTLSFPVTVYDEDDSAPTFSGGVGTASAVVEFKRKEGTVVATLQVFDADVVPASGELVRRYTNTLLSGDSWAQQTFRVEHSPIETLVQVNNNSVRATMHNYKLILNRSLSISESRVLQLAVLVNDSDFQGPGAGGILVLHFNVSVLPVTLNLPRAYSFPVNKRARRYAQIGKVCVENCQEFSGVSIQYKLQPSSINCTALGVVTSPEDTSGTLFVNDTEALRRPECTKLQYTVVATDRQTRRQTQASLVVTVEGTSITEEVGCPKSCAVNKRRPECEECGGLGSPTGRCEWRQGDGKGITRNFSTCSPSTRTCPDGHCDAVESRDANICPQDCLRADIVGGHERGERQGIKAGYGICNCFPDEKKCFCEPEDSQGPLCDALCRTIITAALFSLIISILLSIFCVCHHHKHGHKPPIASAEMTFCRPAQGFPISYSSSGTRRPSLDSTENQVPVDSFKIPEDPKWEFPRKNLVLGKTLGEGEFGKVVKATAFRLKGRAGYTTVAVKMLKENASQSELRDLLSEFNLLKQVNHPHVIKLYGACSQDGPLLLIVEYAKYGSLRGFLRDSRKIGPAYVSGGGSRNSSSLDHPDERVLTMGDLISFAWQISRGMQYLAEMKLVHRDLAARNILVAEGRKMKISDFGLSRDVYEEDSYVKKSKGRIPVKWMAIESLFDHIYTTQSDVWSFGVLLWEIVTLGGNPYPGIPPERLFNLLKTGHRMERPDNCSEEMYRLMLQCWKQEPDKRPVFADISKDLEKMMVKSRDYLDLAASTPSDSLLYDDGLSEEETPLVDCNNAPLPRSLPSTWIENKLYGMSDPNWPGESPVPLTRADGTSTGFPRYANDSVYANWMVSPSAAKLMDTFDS
Protocol: Since the original report argued that XIB4035 displaces GDNF binding to GFRα1 expressing cells (FIG. 2 in Tokugawa et al., Neurochem Int 42, 81-86 (2003).), potentially ARTN, on TH-luciferase activity and Ret phosphorylation. […] In this experiment, cells were treated with GDNF or ARTN with or without XIB4035 for 10 minutes and cell lysates were either collected immediately or treatment was washed out and replaced with growth media for 30, 60, or 120 minutes. […] Therefore, we tested cells expressing only one GFRα using either N2A cells (which express RET) transfected with GFRα1 or GFRα3 expression constructs, or B(E)2-C cells, which express only GFRα2 together with RET. […] The GFRα1 or GFRα3 transfected N2A cells were then treated with XIB4035 alone, the appropriate ligand for the expressed receptor alone, or XIB4035 and ligand in combination for 10 minutes, and collected lysates immediately after treatment or 60 minutes after washout. […] Similar results were obtained with GFRα2 and NRTN using B(E)2-C cells (FIG. 8). Thus, XIB4035 is a positive modulator of signaling by GDNF family ligands and their receptors, not an agonist for GFRα1 as previously reported.
For phosphorylated Ret immunoblot experiments, cells were treated with various combinations of molecules for 10 minutes and either collected immediately or had treatment washed out and returned to control treatment media for the times indicated prior to cell collection. Lysates were collected in buffer containing: 50 mM Tris-HCL, 1% TX-100, 0.25% Deoxycholic acid, 150 mM sodium chloride, 1 mM EDTA, 0.1 mM sodium fluoride, 0.1 mM sodium pyrophosphate, 0.02 mM sodium orthovanadate, and protease inhibitors Immunoblots were blocked in 5% bovine serum albumin in tris-buffered saline+0.2% Tween 20+0.1 mM sodium fluoride, 0.1 mM sodium pyrophosphate, and 0.02 mM sodium orthovanadate and probed in blocking solution using anti-phospotyrosine (4G10) mouse monoclonal antibody (1:2000; EMD Milipore Corp., Billerica, Mass.). […]

[3] = system: diabetic mice (STZ model); assay: Sub-epidermal neural plexus density in papillary dermis of STZ diabetic mice; format: in vivo, mouse; settings: cream from hyperglycemia for 16 weeks
Protocol: To examine SNP, normo-glycemic or diabetic mice (STZ model) were treated with either vehicle cream of cream containing XIB4035 from the moment they became hyperglycemic, for 16 weeks. At the end of this treatment period, the density of sub-epidermal fibers in papillary dermis was measured in papillary dermis. It was thereby identified that sub-epidermal neural plexus (SNP) density was reduced in diabetic mice not administered XIB, but was preserved in diabetic mice that had received XIB4035 treatment (FIG. 10).
Adult female C57 Bl/6J mice were made diabetic (blood glucose >15 mmol/L) by injection of STZ (90 mg/kg i.p.) on two consecutive days, with confirmation of hyperglycemia made 7 days after STZ delivery. Paw thermal response latency of the right paw was measured every two weeks from weeks 8-16 of diabetes using a modified Hargeaves test, as described

CCN(CC)CCCC(C)Nc1cc(/C=C/c2ccccc2Cl)nc2cc(Cl)ccc12 (centres unmarked) [XIB4035, N4-{7-chloro-2-[(E)-2-(2-chloro-phenyl)-vinyl]-quinolin-4-yl}-N1,N1-diethyl-pentane-1,4-diamine]
effect on mechano-reception (response thresholds to mechanical stimuli) [1]: no effect | changes in appearance, food intake, skin health or other outward negative signs [2]: no changes | induction of RET phosphorylation (GFRα3/RET; XIB4035 alone, 10 minutes): did not induce RET phosphorylation | RET phosphorylation at the 60 min time-point compared to ligand alone (GFRα3/RET; XIB4035 and ligand co-treatment, 60 minutes after washout): clearly prolonged | sub-epidermal neural plexus (SNP) density [3]: preserved
